Laboratory results from patent US20140288025A1, “FATTY ACID ANTIVIRAL CONJUGATES AND THEIR USES” (Catabasis Pharmaceuticals, Inc., priority 2013, published 2014).
Where two headings read alike, the source gives them in different places.

Experiments:
NF-κB = NF-κB luciferase reporter assay in RAW 264.7 macrophages; format: cell-based; settings: for IC50: Mus musculus
Procedure: RAW 264.7 cells stably expressing a 3×NFkB response element-drive luciferase reporter were seeded into 96 well plates in sera-free medium (Optimem) 18 hours prior to compound application. Compounds of the invention were prepared by first making 100 mM stock solutions in EtOH. […] Cells were then stimulated with 200 ng/ml LPS or vehicle control for 3 hours in the presence of the compounds of the invention. A set of six vehicles was left unstimulated with LPS in order to measure the assay floor. AlamarBlue viability dye (Invitrogen) was added to cells simultaneously with the delivery of LPS (final AlamarBlue concentration of 10%). After the 3 h incubation period with LPS, cell viability was measured by reading fluorescence (excitation 550 nm, emission 595 nm) with a Perkin Elmer Victor V plate reader. Then cell media was aspirated from each well. Luciferase signal was then developed by addition of the Britelite Plus reagent (Perkin Elmer). Luciferase activity was measured with the Perkin Elmer Victor V plate reader. NE-κB activity was expressed as a percent of the vehicle control wells (stimulated with LPS). Compounds were tested at 6 dose point titrations in triplicate to determine IC50 values.

HIV-1IIIB strain = test: HIV-1 cytoprotection assay (CEM-SS cells, MTS dye reduction); format: cell-based
Procedure: Cytoprotection assays are commonly used for evaluating the antiviral efficacy of test compounds against a variety of viruses in different cell lines. […] Briefly, virus and cells are mixed in the presence of test compound and incubated for 6 days. […] Each assay plate contains cell control wells (cells only), virus control wells (cells plus virus), compound toxicity control wells (cells plus compound only), compound colorimetric control wells (compound only), as well as experimental wells (compound plus cells plus virus). Cytoprotection and compound cytotoxicity are assessed by MTS (CellTiter®96 Reagent, Promega, Madison Wis.) dye reduction. […] Each assay includes the HIV reverse transcriptase inhibitor AZT as a positive control.
CEM-SS cells were obtained from the NIH AIDS Research and Reference Reagent Program and are routinely passaged in T-75 flasks using standard tissue culture techniques based on the specifications provided by the supplier. On the day preceding the assay, the cells are split 1:2 to assure they are in an exponential growth phase at the time of infection. Total cell number and percent viability determinations are performed using a hemacytometer and trypan blue exclusion. […] The cells are re-suspended at 5×10^4 cells/mL in tissue culture medium and added to the drug-containing 96-well microtiter plates in a volume of 50 μl.
The viruses used for this assay are CXCR4-tropic laboratory virus strains. The most commonly used strains are HIV-1RF and HIV-1IIIB (each obtained from the NIH AIDS Research and Reference Reagent Program). For each assay, a pre-titered aliquot of virus is removed from the freezer (−80° C.) and allowed to thaw slowly to room temperature in a biological safety cabinet. The virus is re-suspended and diluted into tissue culture medium such that the amount of virus added to each well in a volume of 50 μl is the amount determined to give between 85 to 95% cell killing at 6 days post-infection.
Each plate contains cell control wells (cells only), virus control wells (cells plus virus), drug cytotoxicity wells (cells plus drug only), drug colorimetric control wells (drug only), background control wells (media only), as well as experimental wells (drug plus cells plus virus). Samples are evaluated for antiviral efficacy with triplicate measurements using 6 concentrations at half-log dilutions (12 concentrations can also be performed) in order to determine IC50 values and with duplicate measurements to determine cellular cytotoxicity, if detectable.
100% EtOH is added to the compounds of the invention such that the EtOH stock concentration is 50 mM. […] (VWR Ultrasonics Cleaner, Model #B8500A-DTH with “Sonics Power” set to HI); e) The 1:2 serial dilutions of the 1 mM 10× stock solution with FBS/2% EtOH are prepared such that the concentrations of the 10× stock solutions are 1 mM, 0.5 mM, 0.25 mM, etc., in FBS with 2% EtOH. Medium is aspirated off cells and replaced with serum free medium.

[1] = RAW264.7, 3 h, read-out: NF-kB inhibitory activity IC50 μM
[2] = RAW264.7, RAW 264.7 reporter cells, 200 ng/ml LPS, 3 hours, read-out: NF-kB inhibitory activity IC50
[3] = RAW 264.7 reporter cells, 200 ng/ml LPS, 3 hours
[4] = Human immunodeficiency virus 1, IIIB, CEM-SS, 144 h, read-out: IC50 HIV-1IIIB strain (nM)
[5] = CEM-SS cells, HIV-1 IIIB strain, 6 days, MTS

Row | SMILES | IC50 (NF-κB; [2]) [µM] | further results
1 | CC(C)CN(C[C@@H](O)[C@H](Cc1ccccc1)NC(=O)O[C@H]1CO[C@H]2OCC[C@H]21)S(=O)(=O)c1ccc(N)cc1 [Darunavir, darunavir, reference compound] |  | IC50 (NF-κB; [1]): > 200 µM
2 | C=C1[C@H](CO)[C@@H](O)C[C@@H]1n1cnc2c(=O)[nH]c(N)nc21 [Entecavir, entecavir, reference compound] | > 200 | 
3 | CC/C=C\C/C=C\C/C=C\C/C=C\C/C=C\C/C=C\CCC(=O)NCCNC(=O)OC[C@H]1O[C@H](n2cc(C)c(=O)[nH]c2=O)C[C@@H]1N=[N+]=[N-] [Example V-5, ((2S,3S,5S)-3-azido-5-(5-methyl-2,4-dioxo-3,4-dihydropyrimidin-1(2H)-yl)tetrahydrofuran-2-yl)methyl (2-((4Z,7Z,10Z,13Z,16Z,19Z)-docosa-4,7,10,13,16,19-hexaenamido)ethyl)carbamate] |  | NF-kB inhibitory activity IC50 μM (NF-κB; [3]): + +; IC50 (HIV-1IIIB strain; Human immunodeficiency virus 1, 144 h, CEM-SS cells, HIV-1 IIIB strain, 6 days, MTS, read-out: IC50 HIV-1IIIB strain): > 100 nM
4 | CC/C=C\C/C=C\C/C=C\C/C=C\C/C=C\C/C=C\CCC(=O)NCCOCCNC(=O)OC[C@H]1O[C@H](n2cc(C)c(=O)[nH]c2=O)C[C@@H]1N=[N+]=[N-] [Example V-8, ((2S,3S,5S)-3-azido-5-(5-methyl-2,4-dioxo-3,4-dihydropyrimidin-1(2H)-yl)tetrahydrofuran-2-yl)methyl (2-(2-((4Z,7Z,10Z,13Z,16Z,19Z)-docosa-4,7,10,13,16,19-hexaenamido)ethoxy)ethyl)carbamate] | 50 to 200 | 
5 | CC/C=C\C/C=C\C/C=C\C/C=C\C/C=C\C/C=C\CCC(=O)N[C@H](C(=O)OC[C@H]1O[C@H](n2cc(C)c(=O)[nH]c2=O)C[C@@H]1N=[N+]=[N-])C(C)C [Example V-9, (S)-((2S,3S,5S)-3-azido-5-(5-methyl-2,4-dioxo-3,4-dihydropyrimidin-1(2H)-yl)tetrahydrofuran-2-yl)methyl 2-((4Z,7Z,10Z,13Z,16Z,19Z)-docosa-4,7,10,13,16,19-hexaenamido)-3-methylbutanoate] | 50 to 200 | 
6 | CC/C=C\C/C=C\C/C=C\C/C=C\C/C=C\C/C=C\CCC(=O)Nc1ncc2ncn(CCC(COC(C)=O)COC(C)=O)c2n1 [Example V-10, 2-(2-(2-((4Z,7Z,10Z,13Z,16Z,19Z)-docosa-4,7,10,13,16,19-hexaenamido)-9H-purin-9-yl)ethyl)propane-1,3-diyl diacetate] | 50 to 200 | 
7 | CC/C=C\C/C=C\C/C=C\C/C=C\C/C=C\C/C=C\CCC(=O)Nc1ncc2ncn(CCC(CO)CO)c2n1 [Example V-11, (4Z,7Z,10Z,13Z,16Z,19Z)—N-(9-(4-hydroxy-3-(hydroxymethyl)butyl)-9H-purin-2-yl)docosa-4,7,10,13,16,19-hexaenamide] | 50 to 200 | 
8 | CC/C=C\C/C=C\C/C=C\C/C=C\C/C=C\CCCC(=O)Nc1ncc2ncn(CCC(COC(C)=O)COC(C)=O)c2n1 [Example V-12, 2-(2-(2-((5Z,8Z,11Z,14Z,17Z)-icosa-5,8,11,14,17-pentaenamido)-9H-purin-9-yl)ethyl)propane-1,3-diyl diacetate] | 50 to 200 | 
9 | CC/C=C\C/C=C\C/C=C\C/C=C\C/C=C\C/C=C\CCC(=O)NCCN(C)CCNC(=O)OC[C@H]1O[C@@H](n2ccc(N)nc2=O)[C@](C)(F)[C@@H]1O [Example V-30, ((2R,3R,4R,5R)-5-(4-amino-2-oxopyrimidin-1(2H)-yl)-4-fluoro-3-hydroxy-4-methyltetrahydrofuran-2-yl)methyl (2-((2-((4Z,7Z,10Z,13Z,16Z,19Z)-docosa-4,7,10,13,16,19-hexaenamido)ethyl)(methyl)amino)ethyl)carbamate] | < 50 | 
10 | CC(=O)OCC(CCn1cnc2cnc(N)nc21)COC(C)=O [Famciclovir, reference compound] | > 200 | 
11 | CC/C=C\C/C=C\C/C=C\C/C=C\C/C=C\C/C=C\CCC(=O)NCCNP(=O)(OC[C@H]1O[C@H](n2cc(C)c(=O)[nH]c2=O)C[C@@H]1N=[N+]=[N-])Oc1ccccc1 (stereo partly drawn) [II-25, ((2S,3S,5S)-3-azido-5-(5-methyl-2,4-dioxo-3,4-dihydropyrimidin-1(2H)-yl)tetrahydrofuran-2-yl)methyl phenyl (2-((4Z,7Z,10Z,13Z,16Z,19Z)-docosa-4,7,10,13,16,19-hexaenamido)ethyl)phosphoramidate] |  | NF-kB inhibitory activity IC50 μM (NF-κB; [3]): + +; IC50 (HIV-1IIIB strain; [4]): < 100 nM
12 | CC/C=C\C/C=C\C/C=C\C/C=C\C/C=C\CCCC(=O)NCCNP(=O)(OC)OC[C@H]1O[C@H](n2cc(C)c(=O)[nH]c2=O)C[C@@H]1N=[N+]=[N-] (stereo partly drawn) [II-30, ((2S,3S,5S)-3-azido-5-(5-methyl-2,4-dioxo-3,4-dihydropyrimidin-1(2H)-yl)tetrahydrofuran-2-yl)methyl methyl (2-((5Z,8Z,11Z,14Z,17Z)-icosa-5,8,11,14,17-pentaenamido)ethyl)phosphoramidate] |  | NF-kB inhibitory activity IC50 μM (NF-κB; [3]): + +; IC50 (HIV-1IIIB strain; [4]): > 100 nM
13 | CC/C=C\C/C=C\C/C=C\C/C=C\C/C=C\CCCC(=O)NCCNP(=O)(OC)OC[C@@H]1O[C@H](n2ccc(N)nc2=O)CS1 (stereo partly drawn) [II-70, ((2R,5S)-5-(4-amino-2-oxopyrimidin-1(2H)-yl)-1,3-oxathiolan-2-yl)methyl methyl (2-((5Z,8Z,11Z,14Z,17Z)-icosa-5,8,11,14,17-pentaenamido)ethyl)phosphoramidate] |  | IC50 (NF-κB; [1]): 50 to 200 µM
14 | Nc1ccn([C@@H]2CS[C@H](CO)O2)c(=O)n1 [Lamivudine, lamivudine, reference compound] | > 200 | 
15 | CC/C=C\C/C=C\C/C=C\C/C=C\C/C=C\C/C=C\CCC(=O)Nc1ccc(S(=O)(=O)N(CC(C)C)C[C@@H](O)[C@H](Cc2ccccc2)NC(=O)O[C@H]2CO[C@H]3OCC[C@H]32)cc1 [VII-1, (3R,3aS,6aR)-hexahydrofuro[2,3-b]furan-3-yl ((2S,3R)-4-(4-((4Z,7Z,10Z,13Z,16Z,19Z)-docosa-4,7,10,13,16,19-hexaenamido)-N-isobutylphenylsulfonamido)-3-hydroxy-1-phenylbutan-2-yl)carbamate] |  | IC50 (NF-κB; [1]): 50 to 200 µM; IC50 HIV-1IIIB strain (nM) (HIV-1IIIB strain; [5]): + ++
16 | CC/C=C\C/C=C\C/C=C\C/C=C\C/C=C\CCCC(=O)Nc1ccc(S(=O)(=O)N(CC(C)C)C[C@@H](O)[C@H](Cc2ccccc2)NC(=O)O[C@H]2CO[C@H]3OCC[C@H]32)cc1 [VII-2, (3R,3aS,6aR)-hexahydrofuro[2,3-b]furan-3-yl((2S,3R)-3-hydroxy-4-(4-((5Z,8Z,11Z,14Z,17Z)-icosa-5,8,11,14,17-pentaenamido)-N-isobutylphenylsulfonamido)-1-phenylbutan-2-yl)carbamate] | < 50 | IC50 HIV-1IIIB strain (nM) (HIV-1IIIB strain; [5]): + ++
17 | Cc1cn([C@H]2C[C@H](N=[N+]=[N-])[C@@H](CO)O2)c(=O)[nH]c1=O [Zidovudine, reference compound] | > 200 | 
